{
  "source": "PubChem BioAssay AID2423",
  "about": "(Broad Institute, 2010)",
  "note": "Records with an inconclusive call do not appear. Active and inactive are the calls of the source. How the calls were made is not given here.",
  "data": [
    {"test_system": "C. albicans CaCi-8 + fluconazole, Alamar Blue growth, 48 h", "test": "resistant C. albicans growth inhibition with fluconazole, dose response, CaCi-8 strain, Alamar Blue fluorescence (AID 2423)", "values": [
      {"smiles": "O=C(CSc1nnc(-c2ccc(Br)cc2)o1)Nc1cccc2ccccc12", "EC50": "15.6 µM"},
      {"smiles": "Cn1c(N/N=C/c2c[nH]c3ccccc23)nc2ccccc21", "EC50": "6.03 µM"},
      {"smiles": "CS/C(=N\\S(=O)(=O)c1cccs1)Nc1ccc(F)c(Cl)c1", "EC50": "1.89 µM"},
      {"smiles": "CS/C(=N\\S(=O)(=O)c1cccs1)Nc1ccc(Cl)cc1", "EC50": "1.2 µM"},
      {"smiles": "Cc1c(Cc2ccccc2)c(=O)oc2c(O)c(O)ccc12", "EC50": "2.75 µM"},
      {"smiles": "O=S(=O)(Nc1nc2ccccc2s1)c1ccc(Br)s1", "EC50": "1.73 µM"},
      {"smiles": "C=CCN1C(=O)N/C(=C/c2ccc(N3CCOCC3)o2)C1=O", "EC50": "0.796 µM"},
      {"smiles": "CCOC(=O)c1c(-c2ccccc2Cl)cn2ccccc12", "EC50": "2.12 µM"},
      {"smiles": "Clc1ccccc1-c1nc2ccccc2c2nc3ccccc3n12", "EC50": "0.204 µM"},
      {"smiles": "NC(=S)n1[nH]c(-c2ccccc2)c(N=Nc2ccccc2C(=O)N2CCOCC2)c1=O", "EC50": "8.43 µM"},
      {"smiles": "CCOc1ccc2nc(NC(=S)N(C)C)sc2c1", "EC50": "1.22 µM"},
      {"smiles": "CCN(CC)c1ccc2cc(S(=O)(=O)c3ccc(C)cc3)c(=O)oc2c1", "EC50": "0.657 µM"},
      {"smiles": "Cc1ccc(Nc2nc(N)c([N+](=O)[O-])c(N3CCC(C)CC3)n2)cc1C", "EC50": "3.64 µM"},
      {"smiles": "CN(C)c1ccc(C(=O)N/N=C/c2cc(Br)cc(Br)c2O)cc1", "EC50": "10.9 µM"},
      {"smiles": "COc1ccc(-n2nc(C(=O)NCC(=O)N3CCN(c4ccccc4)CC3)c3ccccc3c2=O)c(OC)c1", "EC50": "0.698 µM"},
      {"smiles": "COc1cccc(/C=N/Nc2cc(-n3nc(C)cc3-c3ccccc3)ncn2)c1O", "EC50": "0.662 µM"},
      {"smiles": "Cc1cccc(NC2=NC(=S)N(c3cccc(C(=O)O)c3)C23CCCCC3)c1", "EC50": "0.772 µM"},
      {"smiles": "Cc1ccc(C)c(NC(=S)NNC(=O)c2csc3c2CCC(C)C3)c1", "note": "(stereo not given)", "EC50": "1.15 µM"},
      {"smiles": "Cc1cc(Nc2ccc(Cl)cc2)nc(NCc2ccccc2)n1", "EC50": "5.16 µM"},
      {"smiles": "CCC(=O)NC(c1ccc(OC)cc1)c1cc(Cl)c2cccnc2c1O", "note": "(stereo not given)", "EC50": "0.976 µM"},
      {"smiles": "CN(C)c1ccc(/C=C/c2ccc3ccccc3[n+]2C)cc1", "EC50": "0.37 µM"},
      {"smiles": "O=C(N/N=C/c1ccccn1)c1cc(-c2ccc(Cl)cc2)nc2ccccc12", "EC50": "4.33 µM"},
      {"smiles": "O=C(N/N=C\\C=C\\c1ccc([N+](=O)[O-])o1)c1cccs1", "EC50": "> 16 µM (inactive)"},
      {"smiles": "O=C(N/N=C/c1sc(N2CCOCC2)nc1-c1ccccc1)c1cccc(S(=O)(=O)N2CCCC2)c1", "EC50": "2.17 µM"},
      {"smiles": "CCCNC(=O)C12CCC(C)(c3nc4cc(C)c(C)cc4nc31)C2(C)C", "note": "(stereo not given)", "EC50": "> 15 µM (inactive)"},
      {"smiles": "Cc1cc(Sc2nc(N)ncc2[N+](=O)[O-])ncn1", "EC50": "2.15 µM"},
      {"smiles": "COc1cccc(-c2nc(NC(C)C)c3ccccc3n2)c1O", "EC50": "3.2 µM"},
      {"smiles": "Cc1ccc2c(c1)c(/C=C/c1cc[n+](C)cc1)c(C)n2C", "EC50": "> 16 µM (inactive)"},
      {"smiles": "Cc1cc(Cl)ccc1OCc1cn2cccnc2n1", "EC50": "5.34 µM"},
      {"smiles": "CCn1c(=S)[nH]c2scc(-c3cccs3)c2c1=O", "EC50": "> 16 µM (inactive)"},
      {"smiles": "O=C(Nc1nc(-c2ccccn2)cs1)c1ccc(Br)s1", "EC50": "1 µM"},
      {"smiles": "O=C(/C=C\\c1ccc(-c2cccc([N+](=O)[O-])c2)o1)N1CCOCC1", "EC50": "3.1 µM"},
      {"smiles": "CN1c2ccccc2N(C)C1(C)c1ccccc1", "EC50": "> 15 µM (inactive)"},
      {"smiles": "CC(=O)Nc1cccc(-c2csc(Nc3ccc(C)cn3)n2)c1", "EC50": "2.26 µM"},
      {"smiles": "COc1ccc(-n2cccc2/C=C2\\C(=N)N3N=C(C(C)C)SC3=NC2=O)cc1", "EC50": "16.3 µM"},
      {"smiles": "O=C(Oc1c(CN2CCOCC2)cc(Cl)c2cccnc12)c1ccccc1Cl", "EC50": "2.42 µM"},
      {"smiles": "C/C(CC(=O)Nc1cc(C)ccn1)=N\\NC(=O)c1cccc(C)c1O", "EC50": "> 16 µM (inactive)"},
      {"smiles": "CC(Nc1ncnc2ccccc12)c1ccccc1", "note": "(stereo not given)", "EC50": "0.606 µM"},
      {"smiles": "COc1ccccc1C(=O)NNC(=S)NC(=O)c1cc(OC)c(OC)c(OC)c1", "EC50": "9.62 µM"},
      {"smiles": "CN1CCN(C(c2ccc(C(F)(F)F)cc2)c2ccc3cccnc3c2O)CC1", "note": "(stereo not given)", "EC50": "0.883 µM"},
      {"smiles": "O=C(NC(=S)NNC(=O)c1cc2ccccc2cc1O)c1ccco1", "EC50": "1.03 µM"},
      {"smiles": "S=c1[nH]nc(-c2ccccc2)n1/N=C/c1cccs1", "EC50": "6.13 µM"},
      {"smiles": "O=C(N/N=C/c1ccc[nH]1)c1cc2ccccc2cc1O", "EC50": "3.94 µM"},
      {"smiles": "CCCCN(C(=O)/C=C/c1ccco1)c1c(N)n(Cc2ccccc2)c(=O)[nH]c1=O", "EC50": "> 15 µM (inactive)"},
      {"smiles": "CC1CCN(Cc2c(C(=O)N/N=C/c3cc(Br)ccc3O)nnn2-c2nonc2N)CC1", "EC50": "0.908 µM"},
      {"smiles": "Cc1c(N=NC2=C(O)CC(C)(C)CC2=O)c(=O)n(-c2ccccc2)n1C", "EC50": "14 µM"},
      {"smiles": "O=[N+]([O-])c1ccc(O)c(Nc2ncnc3ccc(Br)cc23)c1", "EC50": "0.15 µM"},
      {"smiles": "CC(C)C(=O)NC(c1ccco1)c1ccc2cccnc2c1O", "note": "(stereo not given)", "EC50": "1.94 µM"},
      {"smiles": "NS(=O)(=O)c1cccc(NC(=S)NCc2ccc3c(c2)OCO3)c1", "EC50": "> 16 µM (inactive)"},
      {"smiles": "Cc1cccc(NC(=O)NNC(=O)c2cc3ccccc3cc2O)c1C", "EC50": "> 15 µM (inactive)"},
      {"smiles": "Cc1ccc(C2=NNC3(CCOC(C)(C)C3)S2)cc1", "note": "(stereo not given)", "EC50": "14.8 µM"},
      {"smiles": "O=c1c2ccccc2nc(-c2ccc([N+](=O)[O-])cc2)n1O", "EC50": "6.52 µM"},
      {"smiles": "Cc1c(O)cc2n(c1=O)-c1ccc(Cl)cc1C2(C)C", "EC50": "0.332 µM"},
      {"smiles": "CCC(C)(C)c1ccc(OCCCC[n+]2cccc(C)c2C)c(C(C)(C)CC)c1", "EC50": "> 16 µM (inactive)"},
      {"smiles": "C=CCNC(=S)N/N=C/c1ccc(-c2ccc(OC)cc2)o1", "EC50": "4 µM"}
    ]}
  ]
}
